# Key:
# [1] = tested on: osteoarthritis of the knee; experiment: Second Phase 2 study: WOMAC difficulty performing daily activities (functional ability) subscale score; assay type: in vivo, human; conditions: Week 12
# From the text: This is a Phase 2, multicenter, randomized, double blind (within dose), Ibuprofen-placebo controlled, parallel group, dose range finding study to evaluate the efficacy, safety, and PK of 2-(diethylamino)ethyl 2-(4-isobutylphenyl)propionate spray in adult subjects with clinically symptomatic OA of the knee. For subjects with bilateral knee pain, both knees will be treated, but the most symptomatic knee (ie, the most painful knee as measured by the Western Ontario and McMaster University Osteoarthritis Index [WOMAC® 3.1] pain subscale score at Screening) will be designated as the target knee for efficacy analyses. For subjects with unilateral knee pain, only the symptomatic (target) knee will be treated.
# The VAS version of the WOMAC will be used for the Primary and Secondary Efficacy Endpoints. Efficacy endpoints will be assessed at Screening and Baseline (Day 1) and at the Week 2, Week 4, Week 8, and Week 12/EOS visits.
# (§1) 4.9.2. Secondary Efficacy Endpoints: • 1. Change from Baseline in the WOMAC (VAS) pain subscale score for the target knee at 2, 8, and 12 weeks of treatment; • 2. Change from Baseline in the WOMAC (VAS) stiffness subscale scores for the target knee and WOMAC (VAS) functional ability subscale scores at 2, 4, 8, and 12 weeks of treatment; • 3. Change from Baseline in the overall WOMAC (VAS) score at 2, 4, 8, and 12 weeks of treatment; • 4. Subject's global assessment of disease status of the target knee at 2, 4, 8, and 12 weeks of treatment; • 5. Subject's global assessment of response to therapy of the target knee at 2, 4, 8, and 12 weeks of treatment; • 6. Amount of rescue medication (acetaminophen) consumed per day for target knee pain.
# The Secondary Efficacy Endpoints, change from Baseline in the WOMAC subscale scores for pain, stiffness, and functional ability, and overall WOMAC score at 2, 4, 8, and 12 weeks of treatment, will be analyzed using the same methods as for the Primary Efficacy Endpoint.
# [2] = tested on: osteoarthritis of the knee; experiment: Second Phase 2 study: Subject's Global Assessment of Disease Status (SGADS); assay type: in vivo, human
# From the text: as §1
# [3] = 8.75 mg/knee BID (n = 24), first 130 subjects
# [4] = 17.5 mg/knee BID (n = 19), first 130 subjects
# [5] = all subjects, 4.375 mg/knee BID, n = 49
# [6] = all subjects, 8.75 mg/knee BID, n = 54
# [7] = all subjects, 17.5 mg/knee BID, n = 52
# [8] = 17.5 mg/knee BID, Week 12, first 130 subjects
# [9] = Week 12, 4.375 mg/knee BID (n = 23), first 130 subjects
# [10] = Week 12, 8.75 mg/knee BID (n = 24), first 130 subjects
# [11] = Week 12, 17.5 mg/knee BID (n = 19), first 130 subjects
# [12] = all subjects, 4.375 mg/knee BID, n = 49, Week 12
# [13] = all subjects, 8.75 mg/knee BID, n = 54, Week 12
# [14] = all subjects, 17.5 mg/knee BID, n = 52, Week 12
structure (smiles),measurement,setting,value
CCN(CC)CCOC(=O)C(C)c1ccc(CC(C)C)cc1 (stereo not shown) [2-(diethylamino)ethyl 2-(4-isobutylphenyl)propionate],"WOMAC Difficulty Performing Daily Activities Subscale Scores, Changes from Baseline (LS Mean)",[1]; [3],−28.1 mm
same,"WOMAC Difficulty Performing Daily Activities Subscale Scores, Different from oral ibuprofen (LS Mean)",[1]; [3],−6.6 mm
same,"WOMAC Difficulty Performing Daily Activities Subscale Scores, Different from placebo (LS Mean)",[1]; [3],−10.0 mm
same,"WOMAC Difficulty Performing Daily Activities Subscale Scores, Week 12 (LS Mean)",[1]; [3],33.4 mm
same,"WOMAC Difficulty Performing Daily Activities Subscale Scores, % of improvement from Oral Ibuprofen",[1]; [4],−25.2%
same,"WOMAC Difficulty Performing Daily Activities Subscale Scores, % of improvement from Placebo",[1]; [4],−28.5%
same,"WOMAC Difficulty Performing Daily Activities Subscale Scores, % of improvement from baseline",[1]; [4],−58.2%
same,"WOMAC Difficulty Performing Daily Activities Subscale Scores, Changes from Baseline (LS Mean)",[1]; [4],−37.2 mm
same,"WOMAC Difficulty Performing Daily Activities Subscale Scores, Different from oral ibuprofen (LS Mean)",[1]; [4],−15.6 mm
same,"WOMAC Difficulty Performing Daily Activities Subscale Scores, Different from placebo (LS Mean)",[1]; [4],−19.1 mm
same,"WOMAC Difficulty Performing Daily Activities Subscale Scores, Week 12 (LS Mean)",[1]; [4],26.7 mm
same,"WOMAC Difficulty Performing Daily Activities Subscale Scores, % of improvement from Oral Ibuprofen",[1]; [5],−1.3%
same,"WOMAC Difficulty Performing Daily Activities Subscale Scores, % of improvement from Placebo",[1]; [5],−5.6%
same,"WOMAC Difficulty Performing Daily Activities Subscale Scores, % of improvement from baseline",[1]; [5],−42.8%
same,"WOMAC Difficulty Performing Daily Activities Subscale Scores, Changes from Baseline (LS Mean)",[1]; [5],−25.4 mm
same,"WOMAC Difficulty Performing Daily Activities Subscale Scores, Week 12 (LS Mean)",[1]; [5],33.9 mm
same,"WOMAC Difficulty Performing Daily Activities Subscale Scores, % of improvement from Oral Ibuprofen",[1]; [6],−4.6%
same,"WOMAC Difficulty Performing Daily Activities Subscale Scores, % of improvement from Placebo",[1]; [6],−8.9%
same,"WOMAC Difficulty Performing Daily Activities Subscale Scores, % of improvement from baseline",[1]; [6],−46.1%
same,"WOMAC Difficulty Performing Daily Activities Subscale Scores, Changes from Baseline (LS Mean)",[1]; [6],−27.9 mm
same,"WOMAC Difficulty Performing Daily Activities Subscale Scores, Different from oral ibuprofen (LS Mean)",[1]; [6],−2.7 mm
same,"WOMAC Difficulty Performing Daily Activities Subscale Scores, Different from placebo (LS Mean)",[1]; [6],−6.0 mm
same,"WOMAC Difficulty Performing Daily Activities Subscale Scores, Week 12 (LS Mean)",[1]; [6],32.6 mm
same,"WOMAC Difficulty Performing Daily Activities Subscale Scores, % of improvement from Oral Ibuprofen",[1]; [7],−11.0%
same,"WOMAC Difficulty Performing Daily Activities Subscale Scores, % of improvement from Placebo",[1]; [7],−15.3%
same,"WOMAC Difficulty Performing Daily Activities Subscale Scores, % of improvement from baseline",[1]; [7],−52.5%
same,"WOMAC Difficulty Performing Daily Activities Subscale Scores, Changes from Baseline (LS Mean)",[1]; [7],−31.4 mm
same,"WOMAC Difficulty Performing Daily Activities Subscale Scores, Different from placebo (LS Mean)",[1]; [7],−9.5 mm
same,"WOMAC Difficulty Performing Daily Activities Subscale Scores, Week 12 (LS Mean)",[1]; [7],28.3 mm
same,"SGADS, difference from oral ibuprofen",[2]; [8],−14.2 mm
same,"SGADS, difference from placebo",[2]; [8],−18.6 mm
same,"Subject’s Global Assessment of Disease Status Scores, Baseline (LS Mean)","[2]; 4.375 mg/knee BID (n = 23), first 130 subjects",64.8 mm
same,"Subject’s Global Assessment of Disease Status Scores, Baseline (LS Mean)",[2]; [3],67.2 mm
same,"Subject’s Global Assessment of Disease Status Scores, Baseline (LS Mean)",[2]; [4],69.3 mm
same,"Subject’s Global Assessment of Disease Status Scores, % of improvement from Oral Ibuprofen",[2]; [9],−12.2%
same,"Subject’s Global Assessment of Disease Status Scores, % of improvement from baseline",[2]; [9],−50.6%
same,"Subject’s Global Assessment of Disease Status Scores, % of improvement from placebo",[2]; [9],−14.2%
same,"Subject’s Global Assessment of Disease Status Scores, Changes from Baseline (LS Mean)",[2]; [9],−32.8 mm
same,"Subject’s Global Assessment of Disease Status Scores, Different from oral ibuprofen (LS Mean)",[2]; [9],−3.9 mm
same,"Subject’s Global Assessment of Disease Status Scores, Different from placebo (LS Mean)",[2]; [9],−8.3 mm
same,"Subject’s Global Assessment of Disease Status Scores, Week 12 (LS Mean)",[2]; [9],32.0 mm
same,"Subject’s Global Assessment of Disease Status Scores, % of improvement from Oral Ibuprofen",[2]; [10],−11.8%
same,"Subject’s Global Assessment of Disease Status Scores, % of improvement from baseline",[2]; [10],−50.7%
same,"Subject’s Global Assessment of Disease Status Scores, % of improvement from placebo",[2]; [10],−14.3%
same,"Subject’s Global Assessment of Disease Status Scores, Changes from Baseline (LS Mean)",[2]; [10],−34.1 mm
same,"Subject’s Global Assessment of Disease Status Scores, Different from oral ibuprofen (LS Mean)",[2]; [10],−5.2 mm
same,"Subject’s Global Assessment of Disease Status Scores, Different from placebo (LS Mean)",[2]; [10],−9.6 mm
same,"Subject’s Global Assessment of Disease Status Scores, Week 12 (LS Mean)",[2]; [10],33.1 mm
same,"Subject’s Global Assessment of Disease Status Scores, % of improvement from Oral Ibuprofen",[2]; [11],−23.8%
same,"Subject’s Global Assessment of Disease Status Scores, % of improvement from baseline",[2]; [11],−62.2%
same,"Subject’s Global Assessment of Disease Status Scores, % of improvement from placebo",[2]; [11],−25.8%
same,"Subject’s Global Assessment of Disease Status Scores, Changes from Baseline (LS Mean)",[2]; [11],−43.1 mm
same,"Subject’s Global Assessment of Disease Status Scores, Different from oral ibuprofen (LS Mean)",[2]; [11],−14.2 mm
same,"Subject’s Global Assessment of Disease Status Scores, Different from placebo (LS Mean)",[2]; [11],−18.6 mm
same,"Subject’s Global Assessment of Disease Status Scores, Week 12 (LS Mean)",[2]; [11],26.2 mm
same,"Subject's Global Assessment of Disease Status Scores, % of improvement from Oral Ibuprofen",[2]; [12],−5.3%
same,"Subject's Global Assessment of Disease Status Scores, % of improvement from Placebo",[2]; [12],−6.0%
same,"Subject's Global Assessment of Disease Status Scores, % of improvement from baseline",[2]; [12],−51.9%
same,"Subject's Global Assessment of Disease Status Scores, Changes from Baseline (LS Mean)",[2]; [12],−34.7 mm
same,"Subject's Global Assessment of Disease Status Scores, Week 12 (LS Mean)",[2]; [12],32.1 mm
same,"Subject's Global Assessment of Disease Status Scores, % of improvement from Oral Ibuprofen",[2]; [13],−6.4%
same,"Subject's Global Assessment of Disease Status Scores, % of improvement from Placebo",[2]; [13],−7.1%
same,"Subject's Global Assessment of Disease Status Scores, % of improvement from baseline",[2]; [13],−53.0%
same,"Subject's Global Assessment of Disease Status Scores, Changes from Baseline (LS Mean)",[2]; [13],−36.6 mm
same,"Subject's Global Assessment of Disease Status Scores, Different from oral ibuprofen (LS Mean)",[2]; [13],−3.4 mm
same,"Subject's Global Assessment of Disease Status Scores, Different from placebo (LS Mean)",[2]; [13],−6.2 mm
same,"Subject's Global Assessment of Disease Status Scores, Week 12 (LS Mean)",[2]; [13],32.4 mm
same,"Subject's Global Assessment of Disease Status Scores, % of improvement from Oral Ibuprofen",[2]; [14],−10.6%
same,"Subject's Global Assessment of Disease Status Scores, % of improvement from Placebo",[2]; [14],−11.3%
same,"Subject's Global Assessment of Disease Status Scores, % of improvement from baseline",[2]; [14],−57.2%
same,"Subject's Global Assessment of Disease Status Scores, Changes from Baseline (LS Mean)",[2]; [14],−38.3 mm
same,"Subject's Global Assessment of Disease Status Scores, Different from placebo (LS Mean)",[2]; [14],−7.9 mm
same,"Subject's Global Assessment of Disease Status Scores, Week 12 (LS Mean)",[2]; [14],28.7 mm
